Biological target: T1, Sodium/potassium/calcium exchanger 4 (Homo sapiens, UniProt Q8NFF2)
T1 sequence (Q8NFF2 whole entry): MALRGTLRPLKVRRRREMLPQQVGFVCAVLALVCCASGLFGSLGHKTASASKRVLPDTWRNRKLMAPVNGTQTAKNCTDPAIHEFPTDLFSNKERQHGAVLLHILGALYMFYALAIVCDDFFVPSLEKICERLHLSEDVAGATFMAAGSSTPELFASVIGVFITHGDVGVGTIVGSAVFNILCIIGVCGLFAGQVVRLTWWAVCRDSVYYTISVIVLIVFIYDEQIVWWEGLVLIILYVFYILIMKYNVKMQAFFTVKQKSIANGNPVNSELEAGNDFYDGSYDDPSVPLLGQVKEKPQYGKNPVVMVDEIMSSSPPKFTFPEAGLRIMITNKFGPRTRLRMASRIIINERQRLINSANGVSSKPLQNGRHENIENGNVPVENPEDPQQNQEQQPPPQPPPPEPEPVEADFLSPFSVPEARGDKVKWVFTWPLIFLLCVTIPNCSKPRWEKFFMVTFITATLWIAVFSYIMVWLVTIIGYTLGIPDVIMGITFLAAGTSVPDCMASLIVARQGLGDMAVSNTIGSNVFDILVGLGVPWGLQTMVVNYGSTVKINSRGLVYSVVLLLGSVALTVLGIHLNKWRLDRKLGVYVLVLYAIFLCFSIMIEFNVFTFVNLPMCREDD
Test: Substrate uptake by the Sodium/Potassium/Calcium Exchanger 4 (NCKX4, SLC24A4) as assessed by Screen Questtrade mark Fluo-8 NW calcium assay kit in HEK-293 JumpIN-SLC24A4 cells (PubChem AID: 1794814)
Assay type: functional, cell-based, HEK293

SMILES: [Cl-].[K+] [POTASSIUM CHLORIDE]
- EC50: 174 mM
